Positions of bridges follow the written chain, without caps; N, C: chain ends. Residues, ends and D or L forms follow the SMILES beside them. Chains are numbered I, II in the order given.
Legend:
[1] = test system: KLPN 8852; test: MIC of antibiotics alone against KLPN 8852 (Table 1); format: cell-based, Klebsiella pneumonia; settings: MIC dil in Full strength MHB, antibiotic alone
Protocol: (§1) KLPN 8852, 27025 and 24076 are carbapenemase resistant (“CRE”) strains of the common bacteria, KLPN, Klebsiella pneumonia. […] The ability of amikacin as well as three carbapenem antibiotics (meropenem, imipenem, and doripenem) to kill each of these strains was tested using minimum inhibitory concentration, or MIC, as a measure of effectiveness.

[2] = test system: KLPN 27025; test: MIC of antibiotics alone against KLPN 27025 (Table 1); format: cell-based, Klebsiella pneumonia; settings: MIC dil in Full strength MHB, antibiotic alone
Protocol: as §1

[3] = test system: KLPN 24076; test: MIC of antibiotics alone against KLPN 24076 (Table 1); format: cell-based, Klebsiella pneumonia; settings: MIC dil in Full strength MHB, antibiotic alone
Protocol: as §1

[4] = test system: ACBA 1010; test: MIC of antibiotics alone against ACBA 1010 (Table 1); format: cell-based, Acinetobacter baumannii; settings: MIC dil in Full strength MHB, antibiotic alone
[5] = test system: KLPN 24076; test: microbe, parasite or virus in culture; format: cell-based, Klebsiella pneumonia; settings: for Synergy MIC / MIC: KLPN 24076; for MIC: Klebsiella pneumoniae, agent alone, read-out: Monotherapy MIC
Protocol: (§2) The ability of B2088 [RGRKVVRR)2KK] to kill each of CRE strains KLPN 8852, 27025 and 24076 was tested by itself (as a monotherapy), as well as in combination with one of meropenem, imipenem, or doripenem (as a combination therapy) using minimum inhibitory concentration, or MIC, as a measure of effectiveness. Synergism MIC indicates the MIC of each of B2088 or the carbapenem antibiotic when used as an antibacterial composition.

[6] = test system: KLPN 27025; test: microbe, parasite or virus in culture; format: cell-based, Klebsiella pneumonia; settings: for Synergy MIC / MIC: KLPN 27025; for MIC: Klebsiella pneumoniae, agent alone, read-out: Monotherapy MIC
Protocol: as §2

[7] = test system: KLPN 8852; test: microbe, parasite or virus in culture; format: cell-based, Klebsiella pneumonia; settings: for Synergy MIC / MIC: KLPN 8852; for MIC: Klebsiella pneumoniae, agent alone, read-out: Monotherapy MIC
Protocol: as §2

[8] = test system: ACBA 1010; test: microbe, parasite or virus in culture; format: cell-based, Acinetobacter baumannii; settings: for Synergy MIC / MIC: ACBA 1010; for MIC: Acinetobacter baumannii, agent alone, read-out: Monotherapy MIC
Protocol: as §2, with “strain ACBA 1010” for “each of CRE strains KLPN 8852, 27025 and 24076”

[9] = MIC of each agent in combination B2088 + Doripenem
[10] = MIC of each agent in combination B2088 + Imipenem
[11] = MIC of each agent in combination B2088 + Meropenem

Row | SMILES | Synergy MIC [5, 10] [µg/mL] | Synergy MIC [6, 10] [µg/mL] | Synergy MIC [7, 10] [µg/mL] | Synergy MIC [8, 10] [µg/mL] | MIC [1] [µg/mL] | MIC [2] [µg/mL] | MIC [3] [µg/mL] | MIC [4] [µg/mL] | Synergy MIC [5, 9] [µg/mL] | Synergy MIC [5, 11] [µg/mL] | Synergy MIC [6, 9] [µg/mL] | Synergy MIC [6, 11] [µg/mL] | Synergy MIC [7, 9] [µg/mL] | Synergy MIC [7, 11] [µg/mL] | Synergy MIC [8, 9] [µg/mL] | Synergy MIC [8, 11] [µg/mL] | MIC [5] [µg/mL] | MIC [6] [µg/mL] | MIC [7] [µg/mL] | MIC [8] [µg/mL] | other results
1 | NCC[C@H](O)C(=O)N[C@@H]1C[C@H](N)[C@@H](O[C@H]2O[C@H](CN)[C@@H](O)[C@H](O)[C@H]2O)[C@H](O)[C@H]1O[C@H]1O[C@H](CO)[C@@H](O)[C@H](N)[C@H]1O [Amikacin, amikacin] | – | – | – | – | 6.25 | 0.78 | 1.56 | 1.56 | – | – | – | – | – | – | – | – | – | – | – | – | –
2 | CC(C)[C@H](NC(=O)[C@H](CCCCN)NC(=O)[C@H](CCCNC(=N)N)NC(=O)CNC(=O)[C@@H](N)CCCNC(=N)N)C(=O)N[C@H](C(=O)N[C@@H](CCCNC(=N)N)C(=O)N[C@@H](CCCNC(=N)N)C(=O)NCCCC[C@H](NC(=O)[C@H](CCCNC(=N)N)NC(=O)[C@H](CCCNC(=N)N)NC(=O)[C@@H](NC(=O)[C@@H](NC(=O)[C@H](CCCCN)NC(=O)[C@H](CCCNC(=N)N)NC(=O)CNC(=O)[C@@H](N)CCCNC(=N)N)C(C)C)C(C)C)C(=O)N[C@@H](CCCCN)C(=O)O)C(C)C [B2088, [RGRKVVRR)2KK]] (I: H-RGRKVVRRKK-OH / II: H-RGRKVVRR; amide I:9-II:C; N-terminus and C-terminus assumed) | 1 | 1 | 0.5 | 1 | – | – | – | – | 1 | 1 | 0.01562 | 0.0625 | 0.25 | 1 | 0.0625 | 1 | – | – | – | – | Monotherapy MIC [5]: 6.25 µg/mL; Monotherapy MIC [6]: 6.25 µg/mL; Monotherapy MIC [7]: 25 µg/mL; Monotherapy MIC [8]: 6.25 µg/mL
3 | C[C@@H](O)[C@H]1C(=O)N2C(C(=O)O)=C(S[C@@H]3CN[C@H](CNS(N)(=O)=O)C3)[C@H](C)[C@H]12 [Doripenem, doripenem] | – | – | – | – | > 50 | 25 | 25 | 0.195 | 1 | – | 0.007813 | – | 0.125 | – | 0.007813 | – | 25 | 25 | > 50 | < 0.0975 | –
4 | C[C@@H](O)[C@H]1C(=O)N2C(C(=O)O)=C(SCCN=CN)C[C@H]12 [Imipenem, imipenem] | 1 | 1 | 0.5 | 1 | > 50 | > 50 | > 50 | 25 | – | – | – | – | – | – | – | – | > 50 | > 50 | > 50 | 12.5 | –
5 | C[C@@H](O)[C@H]1C(=O)N2C(C(=O)O)=C(S[C@@H]3CN[C@H](C(=O)N(C)C)C3)[C@H](C)[C@H]12 [Meropenem, meropenem] | – | – | – | – | > 50 | > 50 | > 50 | 1.56 | – | 1 | – | 0.007813 | – | 1 | – | 0.5 | > 50 | 50 | > 50 | 1.56 | –

Source: patent publication US20220133699A1, “Antibacterial Compositions” (Singapore Eye Research Institute, priority 2019, published 2022)
